Peptide text beside a SMILES is read from it.
System: SD rats
Assay: Gross necropsy and weight of vital organs in acute toxicity study
Assay type: in vivo, Sprague Dawley rats
Conditions: for Adrenals, absolute weight / Body weight / Brain, absolute weight / Heart, absolute weight / Kidneys, absolute weight / Liver, absolute weight / Ovaries, absolute weight / Spleen, absolute weight / Thymus, absolute weight / Thyroid, absolute weight / Uterus, absolute weight / Epididymides, absolute weight / Testis, absolute weight: day 15, mean ± SD
Protocol: Forty SD rats (20 males and 20 females) were randomly divided into 4 groups (Figure 1). All rats were given F3 once on the day of the experiment.
Twelve SD rats (6 males, 6 females) were given a daily subcutaneous injection of F3 at a dose of 10.0 mg/kg for consecutive 14 days. The first day of administration was recorded as day 1.
For 14 days, the body weight was measured before F3 administration on the first day of the experiment and once a week thereafter, with additional measurements on the day before and on the day of the planned autopsy. Food intake was recorded once a week. The rats were anesthetized by inhalation of 70% CO2/30% O2 before dissection, and blood samples were taken for hematology and biochemical analysis. The collected tissue was weighed and preserved for pathological examination.
After blood was collected at the predetermined time points, all rats were euthanized and subjected to a comprehensive general autopsy, which included a thorough examination of the external surface of the body, all foramen, cranial cavity, external surface of the brain, chest, abdomen, pelvic cavity, viscera, cervix, and genitalia. The adrenal gland, brain (brain, cerebellum, and brain stem), epididymis, heart, kidney, liver, ovary, spleen, testis, thymus, thyroid gland, and uterus were carefully collected, weighed, and documented before being kept in 10% neutral formalin buffer (10% NBF).

[1] = female SD rats, s.c. 10.0 mg/kg daily x14 d, n=6
[2] = female SD rats, single s.c. 1.0 mg/kg, n=5
[3] = female SD rats, single s.c. 10.0 mg/kg, n=5
[4] = female SD rats, single s.c. 100.0 mg/kg, n=5
[5] = male SD rats, s.c. 10.0 mg/kg daily x14 d, n=6
[6] = male SD rats, single s.c. 1.0 mg/kg, n=5
[7] = male SD rats, single s.c. 10.0 mg/kg, n=5
[8] = male SD rats, single s.c. 100.0 mg/kg, n=5

Q: Which results are given for `CC[C@H](C)[C@H](NC(=O)[C@H](CO)NC(=O)CNC(=O)[C@H](CC(C)C)NC(=O)[C@@H](NC(=O)CNC(=O)[C@H](Cc1ccccc1)NC(=O)[C@H](CC(C)C)NC(=O)CN)C(C)C)C(=O)N[C@@H](C)C(=O)N[C@@H](CCCCN)C(=O)N[C@@H](Cc1c[nH]cn1)C(=O)N[C@H](C(=O)N[C@@H](CC(C)C)C(=O)N1CCC[C@H]1C(=O)N[C@@H](Cc1c[nH]cn1)C(=O)N[C@H](C(=O)N[C@H](C(=O)N1CCC[C@H]1C(=O)N[C@H](C(=O)N[C@H](C(=O)N[C@@H](C)C(=O)N[C@@H](CCC(=O)O)C(=O)N[C@@H](CCCCN)C(=O)N[C@@H](CC(C)C)C(N)=O)[C@@H](C)CC)C(C)C)C(C)C)C(C)C)C(C)C` [F3, Caerin 1.9] (H-GLFGVLGSIAKHVLPHVVPVIAEKL-NH2)?
A: gross necropsy findings (SD rats, s.c. 10.0 mg/kg daily x14 d, all rats): diffuse subcutaneous bleeding at the injection site; influence on absolute and relative organ weight (SD rats, single or repeated s.c. injections): no influence; gross necropsy findings (SD rats, single s.c. 100.0 mg/kg): skin scab and thickening at the administration site in all male rats and four female rats; Adrenals, absolute weight [1]: 0.0793 ± 0.0101 g; Body weight [1]: 233.55 ± 16.03 g; Brain, absolute weight [1]: 1.9517 ± 0.0244 g; Heart, absolute weight [1]: 1.1247 ± 0.1287 g; Kidneys, absolute weight [1]: 1.7017 ± 0.123 g; Liver, absolute weight [1]: 7.5278 ± 0.6229 g; Ovaries, absolute weight [1]: 0.093 ± 0.0151 g; Spleen, absolute weight [1]: 0.6908 ± 0.0750 g; Thymus, absolute weight [1]: 0.427 ± 0.0886 g; Thyroid, absolute weight [1]: 0.0242 ± 0.0053 g; Uterus, absolute weight [1]: 0.4797 ± 0.1336 g; Adrenals, absolute weight [2]: 0.0728 ± 0.0097 g; Body weight [2]: 238.86 ± 7.94 g; Brain, absolute weight [2]: 2.0504 ± 0.0552 g; Heart, absolute weight [2]: 1.1086 ± 0.1559 g; Kidneys, absolute weight [2]: 1.9364 ± 0.118 g; Liver, absolute weight [2]: 7.7464 ± 0.2893 g; Ovaries, absolute weight [2]: 0.1036 ± 0.0242 g; Spleen, absolute weight [2]: 0.57 ± 0.1214 g; Thymus, absolute weight [2]: 0.5216 ± 0.0746 g; Thyroid, absolute weight [2]: 0.0282 ± 0.0029 g; Uterus, absolute weight [2]: 0.6212 ± 0.0948 g; Adrenals, absolute weight [3]: 0.0758 ± 0.0114 g; Body weight [3]: 243.48 ± 10.53 g; Brain, absolute weight [3]: 2.0232 ± 0.044 g; Heart, absolute weight [3]: 0.999 ± 0.0943 g; Kidneys, absolute weight [3]: 1.8596 ± 0.1438 g; Liver, absolute weight [3]: 7.3692 ± 0.709 g; Ovaries, absolute weight [3]: 0.096 ± 0.0182 g; Spleen, absolute weight [3]: 0.5508 ± 0.0854 g; Thymus, absolute weight [3]: 0.535 ± 0.0762 g; Thyroid, absolute weight [3]: 0.0338 ± 0.005 g; Uterus, absolute weight [3]: 0.4664 ± 0.1167 g; Adrenals, absolute weight [4]: 0.076 ± 0.0116 g; Body weight [4]: 238.86 ± 9.44 g; Brain, absolute weight [4]: 1.9918 ± 0.0665 g; Heart, absolute weight [4]: 1.0914 ± 0.0821 g; Kidneys, absolute weight [4]: 1.924 ± 0.0685 g; Liver, absolute weight [4]: 7.8582 ± 0.5028 g; Ovaries, absolute weight [4]: 0.108 ± 0.0223 g; Spleen, absolute weight [4]: 0.545 ± 0.0571 g; Thymus, absolute weight [4]: 0.478 ± 0.0725 g; Thyroid, absolute weight [4]: 0.0344 ± 0.0057 g; Uterus, absolute weight [4]: 0.5842 ± 0.0922 g; Adrenals, absolute weight [5]: 0.0612 ± 0.0041 g; Body weight [5]: 342.57 ± 13.86 g; Brain, absolute weight [5]: 2.062 ± 0.1162 g; Epididymides, absolute weight [5]: 1.0408 ± 0.0584 g; Heart, absolute weight [5]: 1.5727 ± 0.082 g; Kidneys, absolute weight [5]: 2.5043 ± 0.0600 g; Liver, absolute weight [5]: 9.9218 ± 0.6297 g; Spleen, absolute weight [5]: 0.741 ± 0.1802 g; Testis, absolute weight [5]: 3.3857 ± 0.1596 g; Thymus, absolute weight [5]: 0.4433 ± 0.0724 g; Thyroid, absolute weight [5]: 0.0358 ± 0.0092 g; Adrenals, absolute weight [6]: 0.0564 ± 0.0078 g; Body weight [6]: 380.74 ± 8.63 g; Brain, absolute weight [6]: 2.163 ± 0.0999 g; Epididymides, absolute weight [6]: 0.9464 ± 0.0677 g; Heart, absolute weight [6]: 1.485 ± 0.1408 g; Kidneys, absolute weight [6]: 2.8174 ± 0.3469 g; Liver, absolute weight [6]: 11.4326 ± 0.5122 g; Spleen, absolute weight [6]: 0.7378 ± 0.14 g; Testis, absolute weight [6]: 3.328 ± 0.2025 g; Thymus, absolute weight [6]: 0.545 ± 0.1054 g; Thyroid, absolute weight [6]: 0.0494 ± 0.0051 g; Adrenals, absolute weight [7]: 0.0654 ± 0.0073 g; Body weight [7]: 397.34 ± 21.46 g; Brain, absolute weight [7]: 2.181 ± 0.1198 g; Epididymides, absolute weight [7]: 0.9564 ± 0.0348 g; Heart, absolute weight [7]: 1.728 ± 0.2013 g; Kidneys, absolute weight [7]: 3.151 ± 0.1131 g; Liver, absolute weight [7]: 12.5468 ± 0.8106 g; Spleen, absolute weight [7]: 0.8204 ± 0.1012 g; Testis, absolute weight [7]: 3.2666 ± 0.0813 g; Thymus, absolute weight [7]: 0.6256 ± 0.1022 g; Thyroid, absolute weight [7]: 0.0498 ± 0.0093 g; Adrenals, absolute weight [8]: 0.066 ± 0.0075 g; Body weight [8]: 394.58 ± 14.44 g; Brain, absolute weight [8]: 2.1528 ± 0.0816 g; Epididymides, absolute weight [8]: 0.9956 ± 0.0459 g; Heart, absolute weight [8]: 1.6352 ± 0.0401 g; Kidneys, absolute weight [8]: 2.9858 ± 0.1294 g; Liver, absolute weight [8]: 12.2242 ± 0.7073 g; Spleen, absolute weight [8]: 0.793 ± 0.109 g; Testis, absolute weight [8]: 3.4182 ± 0.3029 g; Thymus, absolute weight [8]: 0.6608 ± 0.082 g; Thyroid, absolute weight [8]: 0.0482 ± 0.0075 g

Reference: PMC9363195, “Preclinical Pharmacokinetics, Biodistribution, and Acute Toxicity Evaluation of Caerin 1.9 Peptide in Sprague Dawley Rats” (Evidence-based Complementary and Alternative Medicine : eCAM, 2022)
